Assays:
Rattus norvegicus [1] = test: Inhibition of firing rates of dopaminergic neurons in the substantia nigra pars compacta by intravenous injection in rats.; format: functional
Mus musculus [2] = test: Antagonism of apomorphine in reserpinized mice when a dose of 3.7 micro mol/kg is administered intraperitoneally; format: functional
Mus musculus [3] = test: Antagonism of apomorphine for 10-20 minutes in reserpinized mice when a dose of 3.7 micro mol/kg is administered intraperitoneally; format: functional
Mus musculus [4] = test: Antagonism of apomorphine in reserpinized mice when a dose of 0.4 micro mol/kg is administered intraperitoneally; format: functional
D(2) dopamine receptor [5] = target: T1, D(2) dopamine receptor (Homo sapiens, UniProt P14416); test: Binding affinity against [3H]U-86,170-labeled dopamine receptor D2 in cloned CHO cells; format: cell-based
Rattus norvegicus [6] = test: Inhibition of firing rates of dopaminergic neurons in the substantia nigra pars compacta by intravenous injection in rats; format: functional
Mus musculus [7] = test: Antagonism of apomorphine for 10-20 minutes in reserpinized mice when a dose of 37 micro mol/kg is administered intraperitoneally; format: functional
Rattus norvegicus [8] = organism: Rattus norvegicus; test: Effect on the synthesis rates of serotonin (5-HTP accumulation) in the rat ventral limbic brain region […].; format: functional, Limbic system
Mus musculus [9] = test: Antagonism of apomorphine in reserpinized mice when a dose of 37 micro mol/kg is administered intraperitoneally; format: functional
D(2) dopamine receptor [10] = target: D(2) dopamine receptor (Rattus norvegicus, UniProt P61169); test: Binding affinity for [3H]raclopride-labeled dopamine receptor D2 in rat striatum; format: tissue-based
Mus musculus [11] = test: Antagonism of apomorphine for 0-10 minutes in reserpinized mice when a dose of 37 micro mol/kg is administered intraperitoneally; format: functional
Rattus norvegicus [12] = test: Effect on the synthesis rates of dopamine (DOPA accumulation) in the rat ventral limbic brain region at 3.7 uM/kg.; format: functional, Limbic system
Mus musculus [13] = test: Antagonism of apomorphine for 10-20 minutes in reserpinized mice when a dose of 0.4 micro mol/kg is administered intraperitoneally; format: functional
D(2) dopamine receptor [14] = target: T1, D(2) dopamine receptor; test: Intrinsic activity from GTP shift using CHO cell membranes expressing dopamine receptor D2; format: functional
Mus musculus [15] = test: Ability to stimulate dopaminergic systems by effect on locomotor activity in reserpinized mice when a dose of 0.4 micro mol/kg is administered intraperitoneally; format: functional
Mus musculus [16] = test: Antagonism of apomorphine for 0-10 minutes in reserpinized mice when a dose of 0.4 micro mol/kg is administered intraperitoneally; format: functional
Mus musculus [17] = test: Ability to stimulate dopaminergic systems by effect on locomotor activity in reserpinized mice when a dose of 3.7 micro mol/kg is administered intraperitoneally; format: functional
Mus musculus [18] = test: Ability to stimulate dopaminergic systems by effect on locomotor activity in reserpinized mice when a dose of 37 micro mol/kg is administered intraperitoneally; format: functional
Mus musculus [19] = test: Antagonism of apomorphine for 0-10 minutes in reserpinized mice when a dose of 3.7 micro mol/kg is administered intraperitoneally; format: functional
Mus musculus [20] = test: Antagonism of apomorphine for 10-20 minutes in reserpinized mice when a dose of 3.8 micro mol/kg is administered intraperitoneally; format: functional
Mus musculus [21] = test: Antagonism of apomorphine in reserpinized mice when a dose of 38 micro mol/kg is administered intraperitoneally; format: functional
Mus musculus [22] = test: Antagonism of apomorphine for 0-10 minutes in reserpinized mice when a dose of 38 micro mol/kg is administered intraperitoneally; format: functional
Mus musculus [23] = test: Antagonism of apomorphine in reserpinized mice when a dose of 3.8 micro mol/kg is administered intraperitoneally (**,p<0.10); format: functional
Mus musculus [24] = test: Ability to stimulate dopaminergic systems by effect on locomotor activity in reserpinized mice when a dose of 3.8 micro mol/kg is administered intraperitoneally; format: functional
Mus musculus [25] = test: Antagonism of apomorphine for 0-10 minutes in reserpinized mice when a dose of 3.8 micro mol/kg is administered intraperitoneally; format: functional
Mus musculus [26] = test: Ability to stimulate dopaminergic systems by effect on locomotor activity in reserpinized mice when a dose of 38 micro mol/kg is administered intraperitoneally; format: functional
Mus musculus [27] = test: Antagonism of apomorphine for 10-20 minutes in reserpinized mice when a dose of 38 micro mol/kg is administered intraperitoneally; format: functional

T1 sequence (P14416 whole entry): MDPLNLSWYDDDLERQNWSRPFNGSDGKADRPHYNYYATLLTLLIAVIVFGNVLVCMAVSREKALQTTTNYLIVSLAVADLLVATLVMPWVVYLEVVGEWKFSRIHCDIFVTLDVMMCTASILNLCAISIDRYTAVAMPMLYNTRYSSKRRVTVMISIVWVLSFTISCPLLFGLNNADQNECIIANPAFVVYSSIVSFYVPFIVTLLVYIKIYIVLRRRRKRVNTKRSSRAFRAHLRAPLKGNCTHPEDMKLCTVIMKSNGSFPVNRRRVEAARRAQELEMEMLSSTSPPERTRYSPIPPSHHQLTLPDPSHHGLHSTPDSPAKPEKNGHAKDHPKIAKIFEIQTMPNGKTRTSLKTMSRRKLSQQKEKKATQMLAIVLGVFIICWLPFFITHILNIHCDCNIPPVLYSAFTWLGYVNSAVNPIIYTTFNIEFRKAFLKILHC
Sequence of D(2) dopamine receptor (Rattus norvegicus, UniProt P61169) (P61169 whole entry): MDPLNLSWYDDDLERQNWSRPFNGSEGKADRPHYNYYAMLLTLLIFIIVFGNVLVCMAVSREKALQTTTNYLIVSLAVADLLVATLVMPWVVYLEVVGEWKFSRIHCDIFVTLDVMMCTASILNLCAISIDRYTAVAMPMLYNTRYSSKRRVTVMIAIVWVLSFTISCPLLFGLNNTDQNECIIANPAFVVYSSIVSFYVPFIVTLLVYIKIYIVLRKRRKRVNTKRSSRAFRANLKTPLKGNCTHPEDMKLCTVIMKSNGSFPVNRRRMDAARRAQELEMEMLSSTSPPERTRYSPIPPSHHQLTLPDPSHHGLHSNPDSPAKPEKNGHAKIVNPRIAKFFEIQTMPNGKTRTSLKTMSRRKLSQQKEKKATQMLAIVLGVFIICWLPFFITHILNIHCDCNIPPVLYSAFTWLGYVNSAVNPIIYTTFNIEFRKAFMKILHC

CCCN1CC[C@H]2Cc3c(O)cccc3C[C@@H]21
ED50 (Rattus norvegicus [1]): > 3.73 µmol/kg
Locomotor activity (Mus musculus [2]): 86
Locomotor activity (Mus musculus [3]): 119
Locomotor activity (Mus musculus [4]): 81
Ki (D(2) dopamine receptor [5]): 917 nM
ED50 (Rattus norvegicus [6]): > 3.73 µmol/kg
Locomotor activity (Mus musculus [7]): 103
Control (Rattus norvegicus [8]): 12%
Locomotor activity (Mus musculus [9]): 77
Ki (D(2) dopamine receptor [10]): > 630 nM
Locomotor activity (Mus musculus [11]): 84
Control (Rattus norvegicus [12]): 20%
Locomotor activity (Mus musculus [13]): 119
Intrinsic activity (D(2) dopamine receptor [14]): 18%
Locomotor activity (Mus musculus [15]): 45
Locomotor activity (Mus musculus [16]): 121
Locomotor activity (Mus musculus [17]): 1
Locomotor activity (Mus musculus [18]): 113
Locomotor activity (Mus musculus [19]): 109

C=CCN1CC[C@@H]2Cc3c(O)cccc3C[C@H]21
Locomotor activity (Mus musculus [20]): 29
ED50 (Rattus norvegicus [1]): 0.002 µmol/kg
Locomotor activity (Mus musculus [21]): 103
Locomotor activity (Mus musculus [22]): 54
Locomotor activity (Mus musculus [4]): 141
Ki (D(2) dopamine receptor [5]): 0.3 nM
Locomotor activity (Mus musculus [23]): 147
Locomotor activity (Mus musculus [24]): 1297
Locomotor activity (Mus musculus [25]): 23
Ki (D(2) dopamine receptor [10]): 3 nM
Locomotor activity (Mus musculus [13]): 61
Locomotor activity (Mus musculus [15]): 1092
Locomotor activity (Mus musculus [26]): 1549
Locomotor activity (Mus musculus [16]): 60
Locomotor activity (Mus musculus [27]): 34
